Laboratory results from PubChem BioAssay AID328 (DTP/NCI, 2004).
Several values for one entry are separate records, joined by “and”; a condition that tells them apart may be missing. Equal entries are not always repeated. Toxic doses and inconclusive results are not listed.

Tested on: BDF1 mice, P388 leukemia ip, median survival T/C
Experiment: NCI In Vivo Anticancer Drug Screen. Data for tumor model P388 Leukemia (intraperitoneal) in B6D2F1 (BDF1) mice
Conditions: endpoint: median survival time, higher = longer survival
How it was run: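 Antitumour effect was judged in vivo: survival in drug-treated mice, normalised to that of vehicle-dosed controls, gives the reported T/C.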

COC(=O)[C@@]12OC[C@]34[C@H]([C@@H](O)[C@@H]1O)[C@@]1(C)CC(=O)C(O)=C(C)[C@@H]1C[C@H]3OC(=O)[C@H](OC(=O)/C=C(\C)C(C)C)[C@@H]24
T/C (dose: 0.03 mg/kg/injection, schedule: Q01DX009 (ip), vehicle: saline + alcohol): 151 % of control
T/C (dose: 0.03 mg/kg/injection, schedule: Q01DX009 (ip), vehicle: saline): 155 % of control
T/C (dose: 0.05 mg/kg/injection, schedule: Q01DX005 (iv), vehicle: saline + alcohol): 100 % of control
T/C (dose: 0.05 mg/kg/injection, schedule: Q01DX009 (ip), vehicle: saline + alcohol): 150 % of control
T/C (dose: 0.06 mg/kg/injection, schedule: Q01DX009 (ip), vehicle: other): 153 % of control
T/C (dose: 0.06 mg/kg/injection, schedule: Q01DX009 (ip), vehicle: saline): 170 % of control
T/C (dose: 0.06 mg/kg/injection, schedule: Q01DX009 (sc), vehicle: saline + alcohol): 100 % of control
T/C (dose: 0.06 mg/kg/injection, schedule: Q03HX024 (ip), vehicle: other): 155 % of control
T/C (dose: 0.06 mg/kg/injection, schedule: Q03HX024 (ip), vehicle: saline + alcohol): 152 % of control and 153 % of control
T/C (dose: 0.1 mg/kg/injection, schedule: Q01DX005 (iv), vehicle: saline + alcohol): 100 % of control
T/C (dose: 0.1 mg/kg/injection, schedule: Q01DX009 (ip), vehicle: saline + alcohol): 158 % of control
T/C (dose: 0.12 mg/kg/injection, schedule: Q01DX009 (ip), vehicle: other): 177 % of control
T/C (dose: 0.12 mg/kg/injection, schedule: Q01DX009 (ip), vehicle: saline + alcohol): 158 % of control
T/C (dose: 0.12 mg/kg/injection, schedule: Q01DX009 (ip), vehicle: saline with Tween-80): 151 % of control
T/C (dose: 0.12 mg/kg/injection, schedule: Q01DX009 (ip), vehicle: saline): 180 % of control
T/C (dose: 0.12 mg/kg/injection, schedule: Q03HX024 (ip), vehicle: other): 166 % of control
T/C (dose: 0.12 mg/kg/injection, schedule: Q03HX024 (ip), vehicle: saline + alcohol): 157 % of control
T/C (dose: 0.12 mg/kg/injection, schedule: Q03HX024 (ip), vehicle: saline with Tween-80): 150 % of control
T/C (dose: 0.13 mg/kg/injection, schedule: Q01DX009 (ip), vehicle: saline + alcohol): 158 % of control and 164 % of control and 173 % of control
T/C (dose: 0.13 mg/kg/injection, schedule: Q01DX009 (ip), vehicle: saline with Tween-80): 161 % of control
T/C (dose: 0.13 mg/kg/injection, schedule: Q01DX009 (sc), vehicle: saline + alcohol): 108 % of control
T/C (dose: 0.13 mg/kg/injection, schedule: Q03HX016 (ip), vehicle: saline + alcohol): 152 % of control
T/C (dose: 0.13 mg/kg/injection, schedule: Q03HX024 (ip), vehicle: saline + alcohol): 159 % of control
T/C (dose: 0.2 mg/kg/injection, schedule: Q01DX005 (iv), vehicle: saline + alcohol): 100 % of control
T/C (dose: 0.2 mg/kg/injection, schedule: Q01DX009 (ip), vehicle: saline + alcohol): 173 % of control
T/C (dose: 0.25 mg/kg/injection, schedule: Q01DX009 (ip), vehicle: other): 171 % of control
T/C (dose: 0.25 mg/kg/injection, schedule: Q01DX009 (ip), vehicle: saline with Tween-80): 183 % of control
T/C (dose: 0.25 mg/kg/injection, schedule: Q01DX009 (sc), vehicle: saline + alcohol): 108 % of control
T/C (dose: 0.25 mg/kg/injection, schedule: Q03HX016 (ip), vehicle: saline + alcohol): 165 % of control
T/C (dose: 0.25 mg/kg/injection, schedule: Q03HX024 (ip), vehicle: saline with Tween-80): 169 % of control
T/C (dose: 0.25 mg/kg/injection, schedule: Q04DX003 (ip), vehicle: saline + alcohol): 122 % of control
T/C (dose: 0.25 mg/kg/injection, schedule: Q04DX003 (ip), vehicle: saline with Tween-80): 120 % of control
T/C (dose: 0.4 mg/kg/injection, schedule: Q01DX005 (iv), vehicle: saline + alcohol): 107 % of control
T/C (dose: 0.4 mg/kg/injection, schedule: Q01DX009 (ip), vehicle: saline + alcohol): 185 % of control
T/C (dose: 0.44 mg/kg/injection, schedule: Q01DX009 (ip), vehicle: saline with Tween-80): 186 % of control
T/C (dose: 0.5 mg/kg/injection, schedule: Q01DX009 (ip), vehicle: other): 177 % of control
T/C (dose: 0.5 mg/kg/injection, schedule: Q01DX009 (ip), vehicle: saline with Tween-80): 175 % of control
T/C (dose: 0.5 mg/kg/injection, schedule: Q01DX009 (ip), vehicle: saline): 150 % of control
T/C (dose: 0.5 mg/kg/injection, schedule: Q01DX009 (oral), vehicle: saline + alcohol): 101 % of control and 110 % of control
T/C (dose: 0.5 mg/kg/injection, schedule: Q01DX009 (sc), vehicle: saline + alcohol): 116 % of control
T/C (dose: 0.5 mg/kg/injection, schedule: Q04DX003 (ip), vehicle: saline + alcohol): 120 % of control
T/C (dose: 0.5 mg/kg/injection, schedule: Q04DX003 (ip), vehicle: saline with Tween-80): 117 % of control
T/C (dose: 0.5 mg/kg/injection, schedule: Q08DX002 (ip), vehicle: saline + alcohol): 109 % of control
T/C (dose: 0.5 mg/kg/injection, schedule: Q08DX002 (ip), vehicle: saline with Tween-80): 116 % of control
T/C (dose: 0.65 mg/kg/injection, schedule: Q04DX003 (ip), vehicle: saline + alcohol): 123 % of control
T/C (dose: 0.67 mg/kg/injection, schedule: Q01DX009 (ip), vehicle: saline with Tween-80): 169 % of control
T/C (dose: 0.8 mg/kg/injection, schedule: Q01DX005 (ip), vehicle: saline + alcohol): 164 % of control
T/C (dose: 0.8 mg/kg/injection, schedule: Q01DX005 (iv), vehicle: saline + alcohol): 106 % of control and 119 % of control
T/C (dose: 1.0 mg/kg/injection, schedule: Q01DX001 (ip), vehicle: saline + alcohol): 107 % of control
T/C (dose: 1.0 mg/kg/injection, schedule: Q01DX001 (ip), vehicle: saline with Tween-80): 112 % of control
T/C (dose: 1.0 mg/kg/injection, schedule: Q01DX001 (oral), vehicle: saline + alcohol): 100 % of control and 101 % of control
T/C (dose: 1.0 mg/kg/injection, schedule: Q01DX001 (sc), vehicle: saline + alcohol): 114 % of control
T/C (dose: 1.0 mg/kg/injection, schedule: Q01DX009 (ip), vehicle: saline): 166 % of control
T/C (dose: 1.0 mg/kg/injection, schedule: Q01DX009 (oral), vehicle: saline + alcohol): 105 % of control and 107 % of control
T/C (dose: 1.0 mg/kg/injection, schedule: Q04DX003 (ip), vehicle: saline + alcohol): 123 % of control
T/C (dose: 1.0 mg/kg/injection, schedule: Q04DX003 (ip), vehicle: saline with Tween-80): 123 % of control
T/C (dose: 1.0 mg/kg/injection, schedule: Q08DX002 (ip), vehicle: saline + alcohol): 115 % of control
T/C (dose: 1.0 mg/kg/injection, schedule: Q08DX002 (ip), vehicle: saline with Tween-80): 99 % of control
T/C (dose: 1.08 mg/kg/injection, schedule: Q04DX003 (ip), vehicle: saline + alcohol): 123 % of control
T/C (dose: 1.5 mg/kg/injection, schedule: Q01DX009 (ip), vehicle: saline with Tween-80): 186 % of control
T/C (dose: 1.6 mg/kg/injection, schedule: Q01DX005 (ip), vehicle: saline + alcohol): 182 % of control
T/C (dose: 1.8 mg/kg/injection, schedule: Q04DX003 (ip), vehicle: saline + alcohol): 110 % of control and 123 % of control
T/C (dose: 2.0 mg/kg/injection, schedule: Q01DX001 (ip), vehicle: saline + alcohol): 106 % of control
T/C (dose: 2.0 mg/kg/injection, schedule: Q01DX001 (ip), vehicle: saline with Tween-80): 112 % of control
T/C (dose: 2.0 mg/kg/injection, schedule: Q01DX001 (oral), vehicle: saline + alcohol): 99 % of control and 101 % of control
T/C (dose: 2.0 mg/kg/injection, schedule: Q01DX001 (sc), vehicle: saline + alcohol): 113 % of control
T/C (dose: 2.0 mg/kg/injection, schedule: Q01DX009 (ip), vehicle: saline with Tween-80): 97 % of control
T/C (dose: 2.0 mg/kg/injection, schedule: Q01DX009 (oral), vehicle: saline + alcohol): 96 % of control and 111 % of control
T/C (dose: 2.0 mg/kg/injection, schedule: Q01DX009 (sc), vehicle: saline + alcohol): 99 % of control
T/C (dose: 2.0 mg/kg/injection, schedule: Q08DX002 (ip), vehicle: saline + alcohol): 99 % of control
T/C (dose: 2.0 mg/kg/injection, schedule: Q08DX002 (ip), vehicle: saline with Tween-80): 91 % of control
T/C (dose: 3.2 mg/kg/injection, schedule: Q01DX005 (iv), vehicle: saline + alcohol): 110 % of control
T/C (dose: 4.0 mg/kg/injection, schedule: Q01DX001 (oral), vehicle: saline + alcohol): 101 % of control and 105 % of control
T/C (dose: 4.0 mg/kg/injection, schedule: Q01DX009 (oral), vehicle: saline + alcohol): 97 % of control and 115 % of control
T/C (dose: 8.0 mg/kg/injection, schedule: Q01DX001 (oral), vehicle: saline + alcohol): 98 % of control and 99 % of control
T/C (dose: 45.0 micrograms/kg/injection, schedule: Q01DX009 (ip), vehicle: saline + alcohol): 155 % of control
T/C (dose: 90.0 micrograms/kg/injection, schedule: Q01DX009 (ip), vehicle: saline + alcohol): 180 % of control
T/C (dose: 177.0 micrograms/kg/injection, schedule: Q01DX009 (ip), vehicle: saline + alcohol): 190 % of control
T/C (dose: 389.0 micrograms/kg/injection, schedule: Q01DX004 (ip), vehicle: saline + alcohol): 159 % of control
T/C (dose: 400.0 micrograms/kg/injection, schedule: Q01DX009 (ip), vehicle: saline + alcohol): 185 % of control
T/C (dose: 432.0 micrograms/kg/injection, schedule: Q01DX009 (ip), vehicle: saline + alcohol): 180 % of control and 181 % of control
T/C (dose: 720.0 micrograms/kg/injection, schedule: Q01DX009 (ip), vehicle: saline + alcohol): 182 % of control
T/C (dose: 1200.0 micrograms/kg/injection, schedule: Q01DX009 (ip), vehicle: saline + alcohol): 179 % of control
T/C (dose: 2000.0 micrograms/kg/injection, schedule: Q01DX009 (ip), vehicle: saline + alcohol): 189 % of control
